How the values were obtained:
[1] = test system: skin; test: Application to skin, detrimental effects; format: in vivo; details: used by itself, applied to skin; hours and/or days following application
Text: The low pKa results in an acidic solution having a pH of about 1.9, which damages skin and results in skin peeling in the hours and/or days following application to skin.

[2] = pH of the acidic solution of the substance used by itself; format: physicochemical; details: acetylsalicyclic acid by itself, unbuffered

effect on skin [1]: acts as a skin peeler | pH of resulting acidic solution [2]: about 1.9
Compound: CC(=O)Oc1ccccc1C(=O)O [acetylsalicyclic acid]

From US20110201578A1, “COMPOSITION AND METHODS FOR THE TREATMENT OF PSEUDOFOLLICULITIS BARBAE AND SKIN IRRITATION” (priority 2010, published 2011)
